Assay results from PubChem BioAssay AID330 (DTP/NCI, 2004).
“And” between values parts separate entries of the source, which are not always exact repeats. Equal values may be shown once. Toxic doses and inconclusive results are not listed.

Tested on: P388 leukemia ip, CD2F1 mice, survival T/C
Test: NCI In Vivo Anticancer Drug Screen. Data for tumor model P388 Leukemia (intraperitoneal) in CD2F1 (CDF1) mice
Conditions: endpoint: median survival time, higher = longer survival
Summary of the method: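 Mice carrying the transplanted tumor received test compound or vehicle. Survival was recorded in each group, and the value is the treated-group measurement divided by that of the vehicle-treated control group.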

[1] = dose: 12.5 mg/kg/injection, schedule: Q01DX009 (ip), vehicle: Klucel (hydroxypropylcellulose) (HPC)
[2] = dose: 25.0 mg/kg/injection, schedule: Q01DX009 (ip), vehicle: Klucel (hydroxypropylcellulose) (HPC)
[3] = dose: 50.0 mg/kg/injection, schedule: Q01DX009 (ip), vehicle: Klucel (hydroxypropylcellulose) (HPC)
[4] = dose: 100.0 mg/kg/injection, schedule: Q01DX009 (ip), vehicle: Klucel (hydroxypropylcellulose) (HPC)
[5] = dose: 50.0 mg/kg/injection, schedule: Q01DX009 (ip), vehicle: saline with Tween-80
[6] = dose: 100.0 mg/kg/injection, schedule: Q01DX009 (ip), vehicle: saline with Tween-80
[7] = dose: 200.0 mg/kg/injection, schedule: Q01DX009 (ip), vehicle: saline with Tween-80

With `CC(=O)O/N=C/c1ccncc1` the T/C (dose: 25.0 mg/kg/injection, schedule: Q04DX003 (ip), vehicle: saline) was 108 % of control, the T/C (dose: 50.0 mg/kg/injection, schedule: Q04DX003 (ip), vehicle: saline) was 101 % of control and the T/C (dose: 100.0 mg/kg/injection, schedule: Q04DX003 (ip), vehicle: saline) was 107 % of control. For the same molecule, the T/C (dose: 200.0 mg/kg/injection, schedule: Q04DX003 (ip), vehicle: saline) was 109 % of control and the T/C (dose: 400.0 mg/kg/injection, schedule: Q04DX003 (ip), vehicle: saline) was 117 % of control.

For `CCOC1NC(=O)Oc2ccccc21` (stereo not drawn), the T/C (dose: 3.12 mg/kg/injection, schedule: Q01DX005 (ip), vehicle: Klucel (hydroxypropylcellulose) (HPC)) was 100 % of control, the T/C (dose: 6.25 mg/kg/injection, schedule: Q01DX005 (ip), vehicle: Klucel (hydroxypropylcellulose) (HPC)) was 96 % of control and the T/C (dose: 12.5 mg/kg/injection, schedule: Q01DX005 (ip), vehicle: Klucel (hydroxypropylcellulose) (HPC)) was 103 % of control and 105 % of control. The T/C [1] was 96 % of control, the T/C [2] was 100 % of control and 105 % of control and the T/C [3] was 100 % of control and 103 % of control (2×). For the same molecule, the T/C (dose: 72.0 mg/kg/injection, schedule: Q01DX005 (ip), vehicle: Klucel (hydroxypropylcellulose) (HPC)) was 94 % of control, the T/C [4] was 108 % of control and 109 % of control and 113 % of control and the T/C (dose: 120.0 mg/kg/injection, schedule: Q01DX005 (ip), vehicle: Klucel (hydroxypropylcellulose) (HPC)) was 102 % of control. The T/C (dose: 400.0 mg/kg/injection, schedule: Q01DX009 (ip), vehicle: Klucel (hydroxypropylcellulose) (HPC)) was 200 % of control.

`O=Cc1ccc2nc(C(Cl)(Cl)Cl)ccc2c1` was tested, and the T/C [5] was 100 % of control, the T/C [6] was 105 % of control and the T/C [7] was 100 % of control.

`CCCCCCCCCCCCCCCCCCNCCC#N` was tested, and the T/C [1] was 101 % of control, the T/C [2] was 98 % of control and 100 % of control and the T/C [3] was 98 % of control and 89 % of control (2×). For the same molecule, the T/C [4] was 99 % of control and 87 % of control.

In the case of `CCC#CC(=O)OC`, the T/C [5] is reported as 94 % of control, the T/C [6] is reported as 103 % of control and the T/C [7] is reported as 114 % of control.

With `O=[N+]([O-])c1ccc(N/N=C\c2c(Cl)[nH]c3ccccc23)c([N+](=O)[O-])c1` the T/C [5] was 93 % of control, the T/C [6] was 93 % of control and the T/C [7] was 87 % of control.

With `C=C1CN(CCc2ccccc2)C(=S)S1` the T/C (dose: 60.0 mg/kg/injection, schedule: Q01DX005 (ip), vehicle: saline with Tween-80) was 101 % of control, the T/C (dose: 120.0 mg/kg/injection, schedule: Q01DX005 (ip), vehicle: saline with Tween-80) was 102 % of control and the T/C (dose: 240.0 mg/kg/injection, schedule: Q01DX005 (ip), vehicle: saline with Tween-80) was 102 % of control.

With `O=C(Nc1ccc(Nc2ccc(NC(=O)c3ccccc3)c3c2C(=O)c2ccccc2C3=O)c2c1C(=O)c1ccccc1C2=O)c1ccccc1` the T/C (dose: 100.0 mg/kg/injection, schedule: Q04DX003 (ip), vehicle: saline with Tween-80) was 95 % of control, the T/C (dose: 200.0 mg/kg/injection, schedule: Q04DX003 (ip), vehicle: saline with Tween-80) was 100 % of control and the T/C (dose: 400.0 mg/kg/injection, schedule: Q04DX003 (ip), vehicle: saline with Tween-80) was 100 % of control.

`CCOC(=O)OCC1OC(OC(C)=O)C(OC(C)=O)C(OC(=O)OCC)C1OC(=O)OCC` (stereo not drawn) was tested, and the T/C (dose: 12.5 mg/kg/injection, schedule: Q01DX009 (ip), vehicle: water) was 95 % of control, the T/C (dose: 25.0 mg/kg/injection, schedule: Q01DX009 (ip), vehicle: water) was 99 % of control and the T/C (dose: 50.0 mg/kg/injection, schedule: Q01DX009 (ip), vehicle: water) was 91 % of control. The T/C (dose: 100.0 mg/kg/injection, schedule: Q01DX009 (ip), vehicle: water) was 99 % of control and the T/C (dose: 200.0 mg/kg/injection, schedule: Q01DX009 (ip), vehicle: water) was 90 % of control.

For `CN(CCO)c1cnn(CCO)c(=O)c1Cl`, the T/C (dose: 60.0 mg/kg/injection, schedule: Q01DX005 (ip), vehicle: saline) was 102 % of control, the T/C (dose: 120.0 mg/kg/injection, schedule: Q01DX005 (ip), vehicle: saline) was 105 % of control and the T/C (dose: 240.0 mg/kg/injection, schedule: Q01DX005 (ip), vehicle: saline) was 102 % of control.

In the case of `CCOC(=O)C1OC1(C(F)(F)F)C(F)(F)F` (stereo not drawn), the T/C [5] is reported as 93 % of control, the T/C [6] is reported as 98 % of control and the T/C [7] is reported as 104 % of control.

In the case of `CCCCNCCC(SSSC(CCNCCCC)c1ccc(Cl)cc1)c1ccc(Cl)cc1` (stereo not drawn), the T/C (dose: 6.25 mg/kg/injection, schedule: Q01DX009 (ip), vehicle: saline with Tween-80) is reported as 100 % of control, the T/C (dose: 12.5 mg/kg/injection, schedule: Q01DX009 (ip), vehicle: saline with Tween-80) is reported as 100 % of control and the T/C (dose: 25.0 mg/kg/injection, schedule: Q01DX009 (ip), vehicle: saline with Tween-80) is reported as 90 % of control.
